Measurements published in patent publication US4499303A, “Antihyperlipidemic N-benzoylsulfamates, N-benzylsulfamates and benzylsulfonamides” (Research Corporation, priority 1983, dated 1985).
“Also recorded” adds a separate entry of the source. Like-named read-outs stand apart in the source and are kept apart here.

What was measured:
Assay type in all cases: in vivo
Serum Cholesterol [1] = experiment: Antihyperlipidemic effect in CF1 male mice: serum cholesterol; conditions: for response vs control in vivo at 20 mg/kg: Mus musculus, ip; for antihypercholesteremic activity (in words): mice, compared with others of Table I
Serum Triglycerides = experiment: Antihyperlipidemic effect in CF1 male mice: serum triglycerides; conditions: for response vs control in vivo at 20 mg/kg: Mus musculus, ip, 384 h; for response vs control in vivo at 20 mg/kg / Serum Triglycerides, Day 16: 20 mg/kg/day I.P., CF1 male mice, N = 6, Day 16; for antihypertriglyceridemic activity (in words): mice, compared with others of Table I
Description: Serum triglycerides were assayed using the commercially available Bio-Dynamics/bmc Triglyceride Kit on blood collected on the 16th day. By comparison to standards, the mg% of cholesterol and mg/dl of triglycerides were calculated. Treated values are expressed as percent of control.

serum cholesterol [2] = experiment: Hypolipidemic effect in rodents at 60 mg/kg/day: serum cholesterol
Excerpt: Of the series of compounds tested thus far, N-(p-chlorobenzoyl)-sulfamate and (o-chlorobenzyl)-sulfonamide appear to be of the most interest. […]

triglyceride levels = experiment: Hypolipidemic effect in rodents at 60 mg/kg/day: triglycerides
Description: Of the series of compounds tested thus far, N-(p-chlorobenzoyl)-sulfamate and (o-chlorobenzyl)-sulfonamide appear to be of the most interest. N-(p-chlorobenzoyl)-sulfamic acid sodium salt at 20 mg/kg/day, I.P. lowered serum cholesterol levels 48% and serum triglyceride levels 45% after 16 days dosing.

[3] = test system: normal and hyperlipidemic mice; experiment: Hypolipidemic effect in normal and hyperlipidemic mice, oral and intraperitoneal; conditions: orally and intraperitoneally
[4] = 216 h, 20 mg/kg/day I.P., CF1 male mice, N = 6, Day 9, read-out: Serum Cholesterol, Day 9
[5] = 384 h, 20 mg/kg/day I.P., CF1 male mice, N = 6, Day 16, read-out: Serum Cholesterol, Day 16
[6] = 20 mg/kg/day, I.P., after 16 days dosing, lowering

Row | SMILES | response vs control in vivo at 20 mg/kg (Serum Cholesterol [1]; [4]) | response vs control in vivo at 20 mg/kg (Serum Cholesterol [1]; [5]) | response vs control in vivo at 20 mg/kg (Serum Triglycerides) | antihypertriglyceridemic activity (in words) (Serum Triglycerides) | further results
1 | O=C(NS(=O)(=O)O)c1ccccc1Cl [Compound 4] | 78 ± 6% | 51 ± 5% | 86 ± 8% | less active in lowering triglyceride levels | antihypercholesteremic activity (in words) (Serum Cholesterol [1]): more active than saccharin in lowering serum cholesterol levels
2 | O=S(=O)(O)NCc1ccccc1Cl [Compound 14] | 84 ± 8% | 78 ± 2% | 75 ± 2% | increased antihyertriglyceridemic activity compared to N-benzoylsulfamate 4 | 
3 | COc1cccc(C(=O)NS(=O)(=O)O)c1 [Compound 5] | 86 ± 7% | 72 ± 5% | 80 ± 7% |  | 
4 | COc1cccc(CS(N)(=O)=O)c1 [Compound 18] | 84 ± 6% | 79 ± 7% | 42 ± 4% | more active than saccharin; also recorded: the most active antihypertriglyceridemics in the series | Serum Triglycerides, Day 16 (Serum Triglycerides): 42 % Control
5 | CC(C)c1ccc(C(=O)NS(=O)(=O)O)cc1 [Compound 11] | 90 ± 6% | 77 ± 6% | 49 ± 8% |  | Serum Triglycerides, Day 16 (Serum Triglycerides; listed as p-isopropyl derivative): 49±8 % Control
6 | NS(=O)(=O)Cc1ccccc1 [Compound 20] | 95 ± 8% | 75 ± 5% | 42 ± 3% | more active than saccharin; also recorded: the most active antihypertriglyceridemics in the series | Serum Triglycerides, Day 16 (Serum Triglycerides): 42 % Control
7 | O=C(NS(=O)(=O)O)c1ccccc1 [Compound 7] | 74 ± 6% | 57 ± 5% | 70 ± 6% | less active in lowering triglyceride levels | antihypercholesteremic activity (in words) (Serum Cholesterol [1]): more active than saccharin in lowering serum cholesterol levels; antihypercholesteremic activity (in words) (Serum Cholesterol [1]; listed as unsubstituted prototype): quite active
8 | COc1ccc(C(=O)NS(=O)(=O)O)cc1 [Compound 1] | 63 ± 6% | 60 ± 7% | 65 ± 8% | less active in lowering triglyceride levels | antihypercholesteremic activity (in words) (Serum Cholesterol [1]): more active than saccharin in lowering serum cholesterol levels
9 | Cc1ccc(C(=O)NS(=O)(=O)O)cc1 [Compound 9] | 70 ± 3% | 63 ± 3% | 82 ± 4% |  | 
10 | NS(=O)(=O)Cc1ccccc1Cl [Compound 16, (o-Chlorobenzyl)sulfonamide] | 99 ± 8% | 73 ± 6% | 52 ± 6% | the most active antihypertriglyceridemics in the series | hypolipidemic agent in rodents (in words) (serum cholesterol [2]): potent hypolipidemic agent in rodents; reducing serum cholesterol levels (serum cholesterol [2]; 60/mg/kg/day): 71%; reducing triglyceride levels (triglyceride levels): 49%; hypolipidemic activity (in words) [3]: effective both in normal and hyperlipidemic mice and is active both orally an intraperitonally
11 | COc1ccccc1CS(N)(=O)=O [Compound 17] | 69 ± 4% | 68 ± 7% | 58 ± 6% |  | antihypercholesteremic activity (in words) (Serum Cholesterol [1]): the most active antihypercholesteremic, being equal in activity to saccharin
12 | NS(=O)(=O)Cc1ccc(Cl)cc1 [Compound 22] | 94 ± 7% | 78 ± 8% | 48 ± 4% | equally active with saccharin; also recorded: the most active antihypertriglyceridemics in the series | 
13 | COc1ccc(CNS(=O)(=O)O)cc1 [Compound 12] | 88 ± 4% | 87 ± 2% | 91 ± 9% |  | 
14 | O=C(NS(=O)(=O)[O-])c1ccc(Cl)cc1.[Na+] [Compound 2, N-(p-chlorobenzoyl)-sulfamic acid sodium salt] | 57 ± 5% |  | 55 ± 7% | less active in lowering triglyceride levels | lowered serum cholesterol levels (Serum Cholesterol [1]; [6]): 48%; response vs control in vivo at 20 mg/kg (Serum Cholesterol [1]; 384 h, read-out: Serum Cholesterol, Day 16): 52 ± 6%; antihypercholesteremic activity (in words) (Serum Cholesterol [1]): more active than saccharin in lowering serum cholesterol levels; Serum Triglycerides, Day 16 (Serum Triglycerides; listed as p--Cl, sodium salt): 55±7 % Control; lowered serum triglyceride levels (Serum Triglycerides; [6]): 45%
15 | O=C(NS(=O)(=O)O)c1ccc(Br)cc1 [Compound 8] | 75 ± 4% | 73 ± 7% | 88 ± 3% |  | 
16 | COc1ccc(CS(N)(=O)=O)cc1 [Compound 19] | 74 ± 8% | 70 ± 5% | 76 ± 7% |  | 
17 | CCOC(=O)C(C)(C)Oc1ccc(Cl)cc1 [Clofibrate, reference compound] | 98 ± 7% | 97 ± 9% | 95 ± 7% |  | 
18 | CC(=O)c1ccc(C(=O)NS(=O)(=O)O)cc1 [Compound 10] | 95 ± 3% | 72 ± 4% | 69 ± 6% |  | 
19 | O=C(NS(=O)(=O)O)c1cccc(Cl)c1 [Compound 3] | 72 ± 5% | 64 ± 6% | 97 ± 7% | less active in lowering triglyceride levels | antihypercholesteremic activity (in words) (Serum Cholesterol [1]): more active than saccharin in lowering serum cholesterol levels
20 | O=C1NS(=O)(=O)c2ccccc21 [Saccharin, reference compound] | 77 ± 6% | 68 ± 7% | 48 ± 6% |  | 
21 | NS(=O)(=O)Cc1cccc(Cl)c1 [Compound 21] | 92 ± 7% | 77 ± 5% | 71 ± 5% |  | 
22 | O=S(=O)(O)NCc1ccc(Cl)cc1 [Compound 15] | 94 ± 2% | 93 ± 4% | 79 ± 7% |  | 
23 | O=S(=O)(O)NCc1ccccc1 [Compound 13] | 94 ± 7% | 88 ± 2% | 97 ± 8% |  | 
